# Assays:
# SF-295 [1] = test: Evaluated for growth inhibition (anticancer activity) of Human CNS cancer SF-295 cell line; type: functional
# NCI-H460 [2] = test: Evaluated for growth inhibition (anticancer activity) of Human lung-NSC cancer NCI-H460 cell line; type: functional
# DU-145 [3] = test: Evaluated for growth inhibition (anticancer activity) of Human prostate cancer DU-145 cell line; type: functional
# P388 = test: Evaluated for growth inhibition (anticancer activity) of Murine P388 lymphocytic leukemia cell line; type: functional; settings: Mus musculus
# BXPC-3 = test: Evaluated for growth inhibition (anticancer activity) of human pancreas-a BXPC-3 cell line.; type: functional
# RPMI-7951 = test: Evaluated for growth inhibition (anticancer activity) of Human melanoma cancer RPMI-7951 cell line; type: functional
# [4] = molecular target: Tubulin alpha chain (Sus scrofa) (UniProt P02550); test: Inhibition of colchicine binding; type: functional; settings: concentration not given here
# Cryptococcus neoformans = test: Evaluated for antimicrobial activity against Cryptococcus neoformans; type: functional
# [5] = tested on: Stenotrophomonas maltophilia; test: Evaluated for antimicrobial activity against Stenotrophomonas maltophilia; type: functional
# KM-20L2 = test: Evaluated for growth inhibition (anticancer activity) of Human colon KM20L2 cancer cell line; type: functional
# Tubulin alpha chain = Tubulin alpha chain (Sus scrofa, UniProt P02550); test: Inhibition of tubulin polymerization; type: functional
# SF-295 [6] = test: Evaluated for growth inhibition (anticancer activity) in Human CNS cancer SF-295 cell line; type: functional
# NCI-H460 [7] = test: Evaluated for growth inhibition (anticancer activity) of Human lung-NSC cancer NCI-H460 cell line
# Escherichia coli = test: Evaluated for antimicrobial activity against Escherichia coli; type: functional
# Neisseria gonorrhoeae = test: Evaluated for antimicrobial activity against Neisseria gonorrhoeae; type: functional
# Staphylococcus aureus = test: Evaluated for antimicrobial activity against Staphylococcus aureus; type: functional
# DU-145 [8] = test: Evaluated for growth inhibition (anticancer activity) in Human prostate cancer DU-145 cell line; type: functional
# Candida albicans = test: Evaluated for antimicrobial activity against Candida albicans; type: functional
# Micrococcus luteus = test: Antimicrobial activity against Micrococcus luteus.; type: functional
# Tubulin alpha chain (Sus scrofa), sequence (P02550 whole entry, looked up): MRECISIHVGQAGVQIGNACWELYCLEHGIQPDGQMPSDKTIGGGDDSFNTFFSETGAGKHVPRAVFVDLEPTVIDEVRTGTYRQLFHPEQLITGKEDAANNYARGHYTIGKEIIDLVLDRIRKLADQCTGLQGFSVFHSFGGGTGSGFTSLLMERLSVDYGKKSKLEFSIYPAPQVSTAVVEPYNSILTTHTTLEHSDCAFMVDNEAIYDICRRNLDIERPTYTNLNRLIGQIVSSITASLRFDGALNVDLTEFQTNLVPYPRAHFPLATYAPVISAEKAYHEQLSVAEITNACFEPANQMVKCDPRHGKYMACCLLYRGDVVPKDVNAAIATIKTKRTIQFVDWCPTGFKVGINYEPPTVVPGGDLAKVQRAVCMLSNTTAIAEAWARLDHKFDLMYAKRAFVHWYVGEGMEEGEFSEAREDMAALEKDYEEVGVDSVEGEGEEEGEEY
# Tubulin alpha chain, sequence (P02550 whole entry, looked up): as above
SMILES,GI50 (NCI-H460 [2]) [mg/L],GI50 (DU-145 [3]) [mg/L],GI50 (P388) [mg/L],GI50 (BXPC-3) [mg/L],GI50 (SF-295 [1]) [mg/L],GI50 (KM-20L2) [mg/L],IC50 (Tubulin alpha chain) [µM],other results
COCOc1c(OC)ccc(C(=O)c2cc(OC)c(OC)c(OC)c2)c1OCOC,> 10,> 10,> 10,> 10,> 10,–,–,GI50 (RPMI-7951): > 10 mg/L; inhibition [4]: > 10%
COc1cccc(C=O)c1OC(C)=O,–,–,–,–,–,–,–,MIC (Cryptococcus neoformans): 25 ug disk-1; MIC [5]: 50 ug disk-1
COc1ccc(/C=C\c2cc(OC)c(OC)c(OC)c2)cc1OP(=O)([O-])[O-].[Na+].[Na+] [FOSBRETABULIN DISODIUM],–,–,0.0004,–,–,0.53,> 40,GI50 (SF-295 [6]): 0.036 mg/L; GI50 (NCI-H460 [7]): 0.029 mg/L
COc1ccc(C(=O)c2cc(OC)c(OC)c(OC)c2)c(O)c1O [HYDROXYPHENSTATIN],0.21,0.048,0.315,3.5,0.04,–,0.82,GI50 (RPMI-7951): 0.58 mg/L; inhibition [4]: 77%
COc1ccc(Br)c(O)c1O,–,–,–,–,–,–,–,MIC (Escherichia coli): 50 ug disk-1; MIC (Neisseria gonorrhoeae): <6.25 ug disk-1; MIC (Staphylococcus aureus): 25 ug disk-1; MIC [5]: 25 ug disk-1
COc1cc(/C=C\c2ccc(OC)c(OP(=O)([O-])[O-])c2OP(=O)([O-])[O-])cc(OC)c1OC.[Na+].[Na+].[Na+].[Na+],0.038,–,< 0.01,1.5,0.036,–,–,GI50 (DU-145 [8]): 0.034 mg/L
COc1ccc(Br)c(C=O)c1O,–,–,–,–,–,–,–,MIC (Candida albicans): 50 ug disk-1; MIC (Cryptococcus neoformans): 12.5 ug disk-1; MIC (Neisseria gonorrhoeae): 12.5 ug disk-1
COc1ccc(Br)c(C=O)c1OC(C)=O,–,–,–,–,–,–,–,MIC (Candida albicans): 12.5 ug disk-1; MIC (Cryptococcus neoformans): 6.25 ug disk-1; MIC (Escherichia coli): 50 ug disk-1; MIC (Neisseria gonorrhoeae): 25 ug disk-1
COc1cc(C(=O)c2ccc(OC)c(OP(=O)(OCc3ccccc3)OCc3ccccc3)c2OP(=O)(OCc2ccccc2)OCc2ccccc2)cc(OC)c1OC,> 10,> 10,2.55,> 10,> 10,5.9,–,GI50 (RPMI-7951): > 10 mg/L; MIC (Micrococcus luteus): 50 mg/L

# The next lines start with results.
GI50 (NCI-H460 [2]) [mg/L],GI50 (DU-145 [3]) [mg/L],GI50 (P388) [mg/L],GI50 (BXPC-3) [mg/L],SMILES,GI50 (SF-295 [1]) [mg/L],GI50 (KM-20L2) [mg/L],IC50 (Tubulin alpha chain) [µM],other results
19,32.5,> 10,14.2,COc1cc(C(=O)c2ccc(OC)c(OC)c2OC)cc(OC)c1OC,23.1,–,–,–
0.35,0.3,0.0336,5.3,COc1cc(C(=O)c2ccc(OC)c(OP(=O)([O-])[O-])c2OP(=O)([O-])[O-])cc(OC)c1OC.[Na+].[Na+].[Na+].[Na+],0.23,33.5,> 40,–
0.0006,0.0008,0.0003,0.39,COc1ccc(/C=C\c2cc(OC)c(OC)c(OC)c2)cc1O [COMBRETASTATIN A4],> 0.001,0.34,–,–
–,0.17,0.3,4.4,COc1ccc(/C=C\c2cc(OC)c(OC)c(OC)c2)c(O)c1O [COMBRETASTATIN A-1],–,0.061,1.1,inhibition [4]: 99.6%; GI50 (NCI-H460 [7]): 0.74 mg/L

# — ChEMBL document CHEMBL1133024, “Antineoplastic agents. 443. Synthesis of the cancer cell growth inhibitor hydroxyphenstatin and its sodium diphosphate prodrug” (J Med Chem, 2000)
